# Assays:
# ND3 neuronal cell line = assay: Nerve growth stimulation effect: neurite bearing assay and neurite length assay; assay type: cell-based; settings: for Neurite length per cell (relative activity, maximum activity of compound (I) = 1) / Number of cells (relative cell number, DMSO well = 1) / Proportion of neurite-bearing cells (relative activity, maximum activity of compound (I) = 1): 6 hours
# Procedure: To evaluate the nerve growth stimulation effect, neurite bearing assay (proportion of neurite-bearing cells) and neurite length assay (neurite length) were analyzed with reference to the method of Topalli et al. (Brain Research 1030 (2004), pp. 116-124).
# An ND3 neuronal cell line (European Collection of Authenticated Cell Cultures) was seeded in a DMEM medium containing 10% fetal bovine serum (0.6×10^4 cells/1 mL) in a 24-well plate. 24 hours later, the medium of seeded cells was removed, and a solution in which compound (I) that was sequentially diluted in dimethyl sulfoxide (DMSO) was adjusted in DMEM containing 0.1% bovine serum albumin so that the DMSO final concentration was 0.1%, was added to cells (evaluation performed in duplicate). After six hours from the addition, the proportion of neurite-bearing cells (the number of cells having a neurite longer than the diameter of the cell body/number of total cells), and the neurite length per cell were analyzed. Further, a test was performed in the same manner as described above, except that compound A was used in place of compound (I). The number of total cells, proportion of neurite-bearing cells, and neurite length per cell were analyzed using a MetaMorph Neurite Outgrowth Application Module (Molecular Devices Japan K. K.). The number of cells was defined as the relative cell number, taking the number of cells per well containing DMSO as 1 (Tables 4 and 5). […] The test was conducted multiple times, and the average value was shown. Data with a number of cells of 0.5 or more was used. Accordingly, if the number of cells was less than 0.5, the neurite length per cell and the proportion of neurite-bearing cells were defined as […]
# [1] = system: streptozotocin-induced diabetes mellitus (DM) rat model; assay: Drug efficacy in diabetes mellitus (DM) rat model, bladder function by cystometry; assay type: in vivo, SD rats; settings: STZ DM rats, oral twice a day for 4 weeks
# Procedure: To examine the effect of the compound in a diabetes mellitus model, bladder function was analyzed by cystometry based on the method of Saitoh et al. (European Journal of Pharmacology 501 (2004) 143-149).
# A streptozotocin (STZ) solution obtained by dissolving STZ in a citrate buffer solution (0.1 M citric acid, pH of 4.2) to a concentration of 32.5 mg/mL was prepared, and administered intraperitoneally (65 mg/kg) to SD rats to induce DM models. The same procedure was performed on sham rats except that a citrate buffer solution was used in place of the STZ solution.
# On the day after the model production and 4 weeks later, a blood sample was taken from the tail vein with the rats awake to measure the blood glucose level. […] Individuals with a blood glucose level of 300 mg/dL or more on the day after the production of the model and 4 weeks later were determined to be established DM models and used in subsequent operations. […]
# A pressure transducer (DX-360, Nihon Kohden Kogyo Co., Ltd.) and an infusion pump (TE-331S, Terumo Corporation) were connected via a three-way valve to the other end of the catheter inserted into the bladder. […] The volume of urination was automatically measured using an electronic balance (GX-200, A&D Company Limited) set directly under the holding cage, and recorded continuously on a computer using a PowerLab (sampling rate: 20/sec). […]
# [2] = Pharmacokinetics after oral administration to rats; assay type: in vivo, rat (Crl: CD (SD)); settings: male rat, 10 mg/kg
# Procedure: The required amount of compound (I) was weighed, and a drug suspension was prepared in 0.5% hydroxypropyl methylcellulose. The number of rats in each group was two, and each drug suspension was administered orally to each male rat (Crl: CD (SD)) using an oral sonde (the dose of the compound was 10 mg/kg). At each blood collection point (0.5, 1, 2, 4, 8, and 24 hours after administration), blood was collected from the jugular vein using a syringe and a needle (the anticoagulant was heparin sodium). The collected blood was centrifuged (13000 rpm, 2 min, 4° C.) to prepare plasma, followed by deproteinization. Thereafter, the concentration of the compound in the plasma was measured by LC/MS/MS (LCMS-8040 (Shimadzu Corporation) or API 4000 (AB Sciex), LC: 30-A and 20-A series (Shimadzu Corporation) or Waters Acquity (Waters Corporation)). A drug suspension was prepared and administered, and the concentration of the compound was measured, in the same manner as described above, except that compound A was used in place of compound (I).
# [3] = Solid stability test (HPLC purity after storage); assay type: physicochemical; settings: for Change in purity / Change in purity (in words) / Increase in related substances / Purity after 4 weeks of storage under sealed conditions at 25° C.: 25° C./60% RH (closed system), 4 weeks; for Purity after 4 weeks of storage under sealed conditions at 25° C. / Purity of compound (I) before storage: HPLC
# Procedure: The solid stability of the type I crystal, type II crystal, and type III crystal of compound (I) obtained in Examples 1 to 3 was evaluated after storage for 4 weeks.
# Storage condition: 25° C./60% RH (closed system)
# Storage amount: about 25 mg
# Storage container: glass bottle
# Changes in the purity of compound (I) and in the amounts of related substances (the amounts of substances detected other than compound (I)) were analyzed by weighing about 1 mg of the sample, dissolving it in 2 mL of acetonitrile, and accurately measuring 5 μL of this liquid for analysis by HPLC according to the following method. The handling of the apparatus, including data processing, was in accordance with the method and procedure as instructed for each apparatus.
# Column: YMC-Triart C8 (4.6×150 mm, 3 μm), produced by YMC Co., Ltd.
# Column temperature: 40° C.
# Sample concentration: 0.5 mg/mL
# Mobile phase A: Liquid mixture of water/acetonitrile (1:1 v/v)
# Mobile phase B: Acetonitrile
# [4] = Dynamic moisture adsorption/desorption test; assay type: physicochemical; settings: at 95% relative humidity, 25° C.
# Procedure: The type I crystal, type II crystal, and type III crystal of compound (I) obtained in Examples 1 to 3 were subjected to a moisture adsorption/desorption test after storage for 4 weeks.
# The moisture adsorption/desorption test was performed according to the following conditions.
# About 10 mg of the sample was filled in a dedicated quartz holder, and the weight of the sample at each humidity was continuously measured and recorded under the following conditions. The handling of the apparatus, including data processing, was in accordance with the method and procedure as instructed for each apparatus.
# Apparatus: VTI-SA+ (TA Instruments, Inc.)
# Drying temperature: 25° C.
# Temperature increase rate: 1° C./min
# Measurement temperature: 25° C.
# Relative humidity program: Increase by 5% RH from 5% RH to 95% RH and decrease by 5% RH from 95% RH to 5% RH
Change in purity [3],Change in purity (in words) [3],Increase in related substances [3],Purity after 4 weeks of storage under sealed conditions at 25° C. [3],Purity of compound (I) before storage [3],Moisture absorption [4],Structure (SMILES),"Number of cells (relative cell number, DMSO well = 1) (ND3 neuronal cell line; 1 μM)","Number of cells (relative cell number, DMSO well = 1) (ND3 neuronal cell line; 3 μM)","Number of cells (relative cell number, DMSO well = 1) (ND3 neuronal cell line; 5 μM)","Number of cells (relative cell number, DMSO well = 1) (ND3 neuronal cell line; 10 μM)","Number of cells (relative cell number, DMSO well = 1) (ND3 neuronal cell line; 30 μM)",other results
–,–,–,–,–,–,"CC1=C(CCCCCCCCCCCCCCCO)C(C)(C)CCC1=O [Compound A, 3-(15-Hydroxypentadecyl)-2,4,4-trimethylcyclohex-2-en-1-one]",1.03,0.92,0.92,1.0,0.19,"Neurite length per cell (relative activity, maximum activity of compound (I) = 1) (ND3 neuronal cell line; 1 μM): 0.26; Proportion of neurite-bearing cells (relative activity, maximum activity of compound (I) = 1) (ND3 neuronal cell line; 1 μM): 0.24; Neurite length per cell (relative activity, maximum activity of compound (I) = 1) (ND3 neuronal cell line; 3 μM): 0.33; Proportion of neurite-bearing cells (relative activity, maximum activity of compound (I) = 1) (ND3 neuronal cell line; 3 μM): 0.34; Neurite length per cell (relative activity, maximum activity of compound (I) = 1) (ND3 neuronal cell line; 5 μM): 0.39; Proportion of neurite-bearing cells (relative activity, maximum activity of compound (I) = 1) (ND3 neuronal cell line; 5 μM): 0.41; Neurite length per cell (relative activity, maximum activity of compound (I) = 1) (ND3 neuronal cell line; 10 μM): 0.71; Proportion of neurite-bearing cells (relative activity, maximum activity of compound (I) = 1) (ND3 neuronal cell line; 10 μM): 0.70"
–,–,–,–,–,–,"COCCCCCCCCCCCCCCCC1=C(C)C(=O)CCC1(C)C [Compound (I), 3-(15-methoxypentadecyl)-2,4,4-trimethylcyclohex-2-en-1-one]",1.06,1.01,0.94,0.92,0.96,"Number of cells (relative cell number, DMSO well = 1) (ND3 neuronal cell line; 100 μM): 0.92; Nerve growth stimulation effect compared to compound A (ND3 neuronal cell line; Table 5): excellent nerve growth stimulation effect; Number of relative cells (ND3 neuronal cell line; added in an amount of 1 to 100 μM): ≥ 0.5; Drug efficacy (residual urine volume, FIG. 10) as compared to compound A [1]: remarkable drug efficacy; Improvement in area under the curve (AUC) as compared to compound A [2]: ≥ 1900 times; Improvement in maximum blood concentration Cmax as compared to compound A [2]: ≥ 1100 times"
−0.01%,almost no change in purity,almost no increase in related substances,99.72%,99.73%,almost no moisture absorption,"COCCCCCCCCCCCCCCCC1=C(C)C(=O)CCC1(C)C [Type II crystal, 3-(15-methoxypentadecyl)-2,4,4-trimethylcyclohex-2-en-1-one]",–,–,–,–,–,–
+0.01%,almost no change in purity,almost no increase in related substances,99.71%,99.70%,almost no moisture absorption,"COCCCCCCCCCCCCCCCC1=C(C)C(=O)CCC1(C)C [Type I crystal, 3-(15-methoxypentadecyl)-2,4,4-trimethylcyclohex-2-en-1-one]",–,–,–,–,–,–
–,almost no change in purity,almost no increase in related substances,99.77%,99.77%,almost no moisture absorption,"COCCCCCCCCCCCCCCCC1=C(C)C(=O)CCC1(C)C [Type III crystal, 3-(15-methoxypentadecyl)-2,4,4-trimethylcyclohex-2-en-1-one]",–,–,–,–,–,–

# Reference: US20250178998A1, “CRYSTAL FORM OF CYCLOHEXENONE COMPOUND” (TAIHO PHARMACEUTICAL CO., LTD., priority 2022, published 2025)
